The target of data set [1] is T1, plasma MAO (Bos taurus, UniProt Q29437).
T1 construct: purchased Sigma Chemical Co. (St. Louis, MO, USA)
T1 sequence (Q29437 17-762): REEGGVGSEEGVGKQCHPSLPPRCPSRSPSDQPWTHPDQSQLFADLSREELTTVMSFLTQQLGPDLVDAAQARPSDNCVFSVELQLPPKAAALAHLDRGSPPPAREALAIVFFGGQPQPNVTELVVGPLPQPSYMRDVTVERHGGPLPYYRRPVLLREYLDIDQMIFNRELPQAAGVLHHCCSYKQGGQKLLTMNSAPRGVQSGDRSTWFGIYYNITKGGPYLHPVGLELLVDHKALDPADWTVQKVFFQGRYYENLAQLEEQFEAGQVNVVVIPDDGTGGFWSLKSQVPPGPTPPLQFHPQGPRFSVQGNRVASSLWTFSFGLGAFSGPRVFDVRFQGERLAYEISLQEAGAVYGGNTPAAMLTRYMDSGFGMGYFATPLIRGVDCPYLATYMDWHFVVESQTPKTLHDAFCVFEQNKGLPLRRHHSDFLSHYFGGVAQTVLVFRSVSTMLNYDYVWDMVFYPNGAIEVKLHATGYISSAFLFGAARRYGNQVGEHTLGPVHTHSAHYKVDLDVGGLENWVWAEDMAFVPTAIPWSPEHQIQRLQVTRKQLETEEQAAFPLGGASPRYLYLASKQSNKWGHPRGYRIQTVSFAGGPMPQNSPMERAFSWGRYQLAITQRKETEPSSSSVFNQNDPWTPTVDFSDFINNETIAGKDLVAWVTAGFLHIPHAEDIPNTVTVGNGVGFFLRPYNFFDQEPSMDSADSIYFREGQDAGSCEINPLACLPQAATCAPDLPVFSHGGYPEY
Kind of data set: Enzyme kinetics with monoamineoxidase (substrate disappearance by HPLC, Lineweaver-Burk). It counts as biochemical. The conditions noted are these: result in words. The method, then: Mushroom tyrosinase (400 units/mg) and plasma MAO (1000 units/gm) were obtained from Sigma Chemical Co. (St. Louis, MO, USA). A reaction mixture consisted of a substrate of 7 to 8 different concentrations (40 to 500 »M for mushroom tyrosinase and 20 to 200 »M for MAO) and of either mushroom tyrosinase (2.5 »g) or MAO (10 »g) in 1.0 mL of 0.05 M sodium phosphate buffer, pH 6.8 and 7.4 respectively. The reactions were carried out at 37°C in a shaking water bath, and stopped by taking 100 »L of the reaction mixture and adding it to 900 »L of 0.4 M HCLO₄. The disappearance of substrate was followed using HPLC (high pressure liquid chromatography) Km and Vmax values were calculated from the Lineweaver-Burk plots.

Data set [2] is described as follows: Acute toxicity / lethal dose and maximum tolerable dose. As for the experimental part:
3:1-85 1972. In accordance with this Protocol, ten to fifteen mice were used in each test group. They were weighed and randomized at day one after s.c. inoculation of B16 melanoma cells. From day five, the phenolic melanin precursors were administered i.p. daily for nine days. The test compounds were dissolved in normal saline, and sterilized by heating to 100°C for 2 minutes. […] They were administered i.p. with the following doses: 400 mg/Kg - 4-S-CAP; 200 to 300 mg/Kg - 4-S-CAP; and 200 to 1200 mg/Kg - N-Ac-4-S-CAP. A catalytic amount of L-dopa, 25 mg/Kg and antidecarboxylase, carbidopa, 400 mg/Kg, were also administered. Carbidopa was given one hour prior to L-dopa administration. DTIC (NSC 4538) was used as a control drug at a dose of 60 mg/Kg. Acute toxicity of 4-S-CP and 4-S-CAP was evaluated from 100 to 1600 mg/Kg.
The B16 mouse melanoma was maintained by s.c. inoculation of tumour cells into the back of C57BL7J mice (5 to 6 weeks, female). […] Briefly, excised tumours were homogenized in normal saline. The homogenized tumour cells were then passed through a sterile 80 mesh stainless steel screen, washed with normal saline, centrifuged (500 g. for 10 minutes) and resuspended in normal saline. Suspensions of viable melanoma cells at the concentration of 1 x 10⁶ per 0.1 ml were inoculated s.c. into both the right and left inguinal areas of C57BL/6J mice (female, 5 to 6 weeks old, 18 to 20 gm).

Data set [3] relates to B16 melanoma. Kind of data set: In vivo growth inhibition of s.c. inoculated B16 melanoma. Also noted: species or system C57BL/6J mice. The conditions noted are these: day 12 or 13. As for the experimental part:
The in vivo antimelanoma effect of the compounds were evaluated by percent growth inhibition of inoculated tumour (%g.i.). The percent g.i. was computed from the mean tumour volume at day 12 or 13 of the experiments; i.e., 100 x (1- treated group/control group). […] To further examine whether a minimal dose of N-Ac-4-S-CAP, 200 mg/Kg has an antimelanoma effect, three groups of mice were treated with N-Ac-4-S-CAP. […] One of the advantages of N-Ac-4-S-CAP over 4-S-CAP was that it had much higher LD⁵⁰ (as high as 1400 mg/Kg of body weight, and therefore a greater range of safety).

[4] abbreviates: Experiment I, 200 mg/Kg i.p. daily for nine days.
The mark [5] stands for this setting: Experiment I, 400 mg/Kg i.p. daily for nine days.
The mark [6] stands for this setting: Experiment I, 600 mg/Kg i.p. daily for nine days.
[7] abbreviates: Experiment I, 800 mg/Kg i.p. daily for nine days.
Setting [8] is: Experiment II, 400 mg/Kg i.p. daily for nine days.
The mark [9] stands for this setting: Experiment II, 800 mg/Kg i.p. daily for nine days.
Where [10] appears, read: Experiment II, 1200 mg/Kg i.p. daily for nine days.

The values that follow come from patent EP0526502B1, “PHENOLIC AMINE DEPIGMENTING AND ANTIMELANOMA AGENTS” (The Governors of the University of Alberta, priority 1990, dated 1991).

Molecules are shown by their SMILES.

As a reminder, the LD50 is the dose at which mortality reaches 50%. With `CC(=O)NCCSc1ccc(O)cc1` [N-Ac-4-S-CAP, N-ACETYL-4-S-CYSTEAMINYLPHENOL], the “substrate for plasma MAO” value in data set [1] was “not, however, a substrate for plasma MAO”. The compound also came in with a lethal dose in data set [2] (acute toxicity, mice) of 1400 mg/kg. Further, the “per single dose toxicity levels” value in data set [2] (experimental tests on animals, single dose) is listed as ~1,400 mg/kg of body weight. For the same compound, the LD50 in data set [2] (mouse, in vivo, ip) turned out to be 1400 mg/kg. Also, the “%Gi” value came to 39.8% in data set [3] (setting [4]); 57.3% in data set [3] (setting [5]); 63.18% in data set [3] (setting [6]); 74.4% in data set [3] (setting [7]); 32.0% in data set [3] (Experiment II, 200 mg/Kg i.p. daily for nine days); 34.0% in data set [3] (setting [8]). Also, the “%Gi” value in data set [3] (setting [9]) was found to be 63.4%; in data set [3] (setting [10]), 70.7%. Besides, the “Tumour Volume” value in data set [3] (setting [4]) was determined as 313 ± 83 mm^3; in data set [3] (setting [5]), 222 ± 13 mm^3; in data set [3] (setting [6]), 192 ± 48 mm^3; in data set [3] (setting [7]), 133 ± 11 mm^3; in data set [3] (setting [8]), 359 ± 52 mm^3; in data set [3] (setting [9]), 199 ± 26 mm^3. Also, in data set [3] (setting [10]), the “Tumour Volume” value is recorded as 159 ± 23 mm^3.
